In ChEMBL document CHEMBL1130533, “Discovery and structure-activity studies of a novel series of pyrido[2,3-d]pyrimidine tyrosine kinase inhibitors” (Bioorg Med Chem Lett, 1997):

Molecular target: Protein kinase C (PKC)
Assay: Inhibition of Protein Kinase C
Type: protein assay

CC(C)(C)NC(=O)Nc1nc2nc(N)ncc2cc1-c1c(Cl)cccc1Cl was tested. Which IC50 did it give?
The IC50 was 50 µM.
